The source of these data is ChEMBL document CHEMBL4270601, “Design and synthesis of multipotent 3-aminomethylindoles and 7-azaindoles with enhanced protein phosphatase 2A-activating profile and neuroprotection” (Eur J Med Chem, 2018).

For series [1], the system named is SH-SY5Y. As to the kind of experiment: Cytotoxicity against human SH-SY5Y cells assessed as decrease in cell viability up to 30 uM after 48 hrs by MTT assay. The series is classed as cell-based. For orientation: Formazan colour is commonly taken as a measure of viable cells.
Series [2] concerns SH-SY5Y. As to the kind of experiment: Reversal of okadaic acid-mediated PP2A catalytic subunit C Ser/Thr phosphatase activity inactivation in human SH-SY5Y cells assessed as recovery of PP2A activity at 0.1 uM preincubated for 24 hrs followed by cotreatment with PPA2 inhibitor okadaic acid for 18 hrs measured over 30 mins by pNPP based spectrophotometric analysis relative to control. Also on record: scale not given: the % may be the effect or the level left. It is filed as cell-based.

Series [3] deals with Voltage-gated calcium channel. As to the kind of experiment: Inhibition of voltage gated calcium channel in human SH-SY5Y cells assessed as blockade of K+-evoked calcium uptake at 1 uM pretreated for 10 mins followed by 70 mM K+ addition by Fluo-4AM dye based fluorescence assay relative to control. It is filed as cell-based.
Series [4] concerns SH-SY5Y. As to the kind of experiment: Neuroprotective activity against cocktail of rotenone plus oligomycin A-induced oxidative stress in human SH-SY5Y cells assessed as increase in cell viability at 10 nM preincubated for 24 hrs followed by […] measured after 24 hrs by MTT assay relative to control. It is filed as functional.
In series [5] the test system is SH-SY5Y. As to the kind of experiment: Neuroprotective activity against okadaic acid-induced oxidative stress in human SH-SY5Y cells assessed as increase in cell viability at 0.1 uM preincubated for 24 hrs followed by OA addition measured after 20 hrs by MTT assay relative to control. The series is classed as functional.
Series [6] concerns SH-SY5Y. The series can be described thus: Reversal of okadaic acid-mediated PP2A inactivation in human SH-SY5Y cells assessed as decrease in Tau phosphorylation at Ser202/Thr205 residues at 0.1 uM after 24 hrs by Western blot method. The series is classed as cell-based. On the technique in general: A western blot detects proteins with antibodies after separation by electrophoresis.

Series [7] addresses Voltage-dependent N-type calcium channel subunit alpha (Bos taurus) (UniProt G3X7Z2). As to the kind of experiment: Inhibition of N-type voltage dependent calcium channel in bovine Chromaffin cells assessed as reduction in K+-induced calcium current at 1 uM after 3 mins by whole cell patch clamp electrophysiology assay. It is filed as cell-based. For orientation: In patch-clamp work, channel activity is measured electrically.

For a further series, the species on record is Bos taurus. As to the kind of experiment: Inhibition of P/Q-type voltage dependent calcium channel in bovine Chromaffin cells assessed as reduction in K+-induced calcium current at 1 uM after 3 mins by whole cell patch clamp electrophysiology assay. It is filed as cell-based.
Series [8] deals with Voltage-gated calcium channel. The series can be described thus: Inhibition of voltage gated calcium channel in human SH-SY5Y cells assessed as blockade of K+-evoked calcium uptake at 3 uM pretreated for 10 mins followed by 70 mM K+ addition by Fluo-4AM dye based fluorescence assay relative to control. It is filed as cell-based.

Molecules are shown by their SMILES. Active and inactive are the calls of the source. The calls are words filed in the database; no cut-off is given here.

Sequence of Voltage-dependent N-type calcium channel subunit alpha (Bos taurus) (G3X7Z2 as listed by the source): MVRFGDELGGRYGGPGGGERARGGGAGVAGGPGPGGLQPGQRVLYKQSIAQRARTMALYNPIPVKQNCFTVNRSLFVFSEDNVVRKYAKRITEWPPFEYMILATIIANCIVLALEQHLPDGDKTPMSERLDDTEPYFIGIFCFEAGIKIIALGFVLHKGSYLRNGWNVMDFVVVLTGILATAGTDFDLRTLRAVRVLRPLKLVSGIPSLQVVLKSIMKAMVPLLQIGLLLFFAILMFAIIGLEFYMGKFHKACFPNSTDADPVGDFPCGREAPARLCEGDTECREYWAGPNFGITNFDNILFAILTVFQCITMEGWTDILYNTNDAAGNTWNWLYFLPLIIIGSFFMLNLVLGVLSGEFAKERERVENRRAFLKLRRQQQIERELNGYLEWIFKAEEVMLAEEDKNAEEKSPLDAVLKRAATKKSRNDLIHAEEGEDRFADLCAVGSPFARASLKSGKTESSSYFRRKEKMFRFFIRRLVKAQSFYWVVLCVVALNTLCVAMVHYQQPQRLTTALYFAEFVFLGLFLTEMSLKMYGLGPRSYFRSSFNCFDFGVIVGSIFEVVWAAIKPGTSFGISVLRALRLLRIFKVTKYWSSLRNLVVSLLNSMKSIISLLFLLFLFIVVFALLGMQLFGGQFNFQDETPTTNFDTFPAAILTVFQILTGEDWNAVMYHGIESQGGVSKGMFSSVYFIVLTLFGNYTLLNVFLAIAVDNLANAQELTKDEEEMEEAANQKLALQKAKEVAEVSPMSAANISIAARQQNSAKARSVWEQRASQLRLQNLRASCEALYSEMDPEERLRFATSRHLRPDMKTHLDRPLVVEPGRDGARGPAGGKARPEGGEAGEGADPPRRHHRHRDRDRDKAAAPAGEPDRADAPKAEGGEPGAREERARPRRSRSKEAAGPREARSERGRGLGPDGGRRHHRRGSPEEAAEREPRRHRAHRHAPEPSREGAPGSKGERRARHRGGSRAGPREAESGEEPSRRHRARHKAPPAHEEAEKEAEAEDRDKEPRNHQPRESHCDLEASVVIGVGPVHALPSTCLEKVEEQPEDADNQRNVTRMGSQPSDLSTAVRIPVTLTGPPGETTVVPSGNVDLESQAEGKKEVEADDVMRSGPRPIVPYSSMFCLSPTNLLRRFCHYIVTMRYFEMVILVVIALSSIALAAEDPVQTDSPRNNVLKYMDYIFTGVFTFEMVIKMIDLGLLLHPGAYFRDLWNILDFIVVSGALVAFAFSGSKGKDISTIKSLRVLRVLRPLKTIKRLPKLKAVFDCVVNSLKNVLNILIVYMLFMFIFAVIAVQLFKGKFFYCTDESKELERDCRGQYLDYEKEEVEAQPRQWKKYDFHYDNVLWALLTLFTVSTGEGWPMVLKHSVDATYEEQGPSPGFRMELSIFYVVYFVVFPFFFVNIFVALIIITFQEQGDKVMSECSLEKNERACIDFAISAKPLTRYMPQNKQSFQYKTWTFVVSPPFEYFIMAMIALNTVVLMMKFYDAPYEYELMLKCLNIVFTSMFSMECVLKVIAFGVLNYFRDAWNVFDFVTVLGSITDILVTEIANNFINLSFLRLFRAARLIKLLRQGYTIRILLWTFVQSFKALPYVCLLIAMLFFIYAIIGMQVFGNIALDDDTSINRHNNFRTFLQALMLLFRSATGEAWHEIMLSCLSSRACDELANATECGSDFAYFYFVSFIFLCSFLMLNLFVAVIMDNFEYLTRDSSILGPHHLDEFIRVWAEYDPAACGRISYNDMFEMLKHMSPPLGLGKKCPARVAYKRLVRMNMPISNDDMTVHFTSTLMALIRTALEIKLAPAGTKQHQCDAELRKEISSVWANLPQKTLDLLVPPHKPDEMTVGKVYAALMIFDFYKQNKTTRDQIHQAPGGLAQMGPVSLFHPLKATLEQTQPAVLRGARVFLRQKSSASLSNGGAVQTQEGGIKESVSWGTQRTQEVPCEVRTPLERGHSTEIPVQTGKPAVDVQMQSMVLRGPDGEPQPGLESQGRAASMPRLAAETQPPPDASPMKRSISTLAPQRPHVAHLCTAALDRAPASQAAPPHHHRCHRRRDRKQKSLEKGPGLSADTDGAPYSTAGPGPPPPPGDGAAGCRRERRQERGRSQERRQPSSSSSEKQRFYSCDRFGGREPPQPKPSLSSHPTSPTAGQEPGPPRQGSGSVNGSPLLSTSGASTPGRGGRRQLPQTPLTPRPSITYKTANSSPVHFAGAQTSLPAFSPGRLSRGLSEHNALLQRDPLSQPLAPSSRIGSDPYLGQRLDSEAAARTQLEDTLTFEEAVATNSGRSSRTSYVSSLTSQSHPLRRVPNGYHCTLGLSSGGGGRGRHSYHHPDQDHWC

Consider `CCCCn1cc(CN2CCCCC2)c2cc(Cl)ccc21`, for which the Activity entry in the series with SH-SY5Y [1] was “Non-Toxic”; in the series on SH-SY5Y [2], 38%; with SH-SY5Y [4], 27%; with SH-SY5Y [5], 98%. For the same compound, the “inhibition (INH)” value in series [3] was found to be 24%.

For the compound `CC12CC3CC(C)(C1)CC(N)(C3)C2` [MEMANTINE], the Activity stood at 28% in the series on SH-SY5Y [2] and 63% in the series on SH-SY5Y [5].

`CN(C)Cc1cn(Cc2ccccc2)c2ccccc12`: the Activity entry in the series with SH-SY5Y [1] was “Non-Toxic”; with SH-SY5Y [2], 45%; in the series on SH-SY5Y [4], 34%; in the series on SH-SY5Y [5] it was 67%. For the same compound, in series [3], the “inhibition (INH)” value is reported as 22%.

For the compound `COc1ccc2[nH]cc(CCNC(C)=O)c2c1` [MELATONIN], the Activity in the series with SH-SY5Y [4] is 36%.

With `Brc1cnc2c(c1)c(CN1CCCCC1)cn2Cc1ccccc1`, the Activity entry in the series with SH-SY5Y [1] is “Non-Toxic”; in the series on SH-SY5Y [2], 31%; with SH-SY5Y [4], 25%; in the series with SH-SY5Y [5], 60%. Moreover, in series [3], the “inhibition (INH)” value was found to be 15%.

With `CCCCn1cc(CN2CCCCC2)c2cc(Br)cnc21`, the Activity entry is “Non-Toxic” in the series on SH-SY5Y [1], 22% with SH-SY5Y [2], 39% in the series on SH-SY5Y [4] and 98% in the series with SH-SY5Y [5]. Moreover, the “inhibition (INH)” value in [3] is given as 9%.

Regarding `CN(C)Cc1cn(Cc2ccccc2)c2ccc(Cl)cc12`, the outcome in the series on SH-SY5Y [6] was Active. The Activity entry was “Non-Toxic” with SH-SY5Y [1], 78% in the series with SH-SY5Y [2], 32% in the series on SH-SY5Y [4] and 88% in the series with SH-SY5Y [5]. Moreover, in series [3], the “inhibition (INH)” value is 40%. For the same compound, the inhibition result (in series [7]; in the series listed under Bos taurus) was “Active” in each case.

For the compound `C#CCn1cc(CN(C)C)c2ccccc21`, the Activity result is “Non-Toxic” with SH-SY5Y [1], 59% with SH-SY5Y [2], 32% in the series on SH-SY5Y [4] and 75% with SH-SY5Y [5]. Further, the “inhibition (INH)” value in [3] is reported as 3%.

With `CCCCn1cc(CN(C)C)c2ccccc21`, the Activity result in the series on SH-SY5Y [1] was “Non-Toxic”; in the series with SH-SY5Y [2], 12%; in the series on SH-SY5Y [4], 20%; in the series with SH-SY5Y [5], 50%. Also, in [3], the “inhibition (INH)” value is listed as 7%.

For `Clc1ccc2c(c1)c(CN1CCCCC1)cn2Cc1ccccc1`, the Activity entry in the series on SH-SY5Y [1] is “Non-Toxic”; in the series on SH-SY5Y [2], 27%; in the series with SH-SY5Y [4] it was 24%; with SH-SY5Y [5] it was 62%. Further, in series [3], the “inhibition (INH)” value is 37%.

Take `c1ccc(Cn2cc(CN3CCCCC3)c3ccccc32)cc1`: the Activity result with SH-SY5Y [1] was “Non-Toxic”; with SH-SY5Y [2] it was 37%; in the series with SH-SY5Y [4] it was 28%; with SH-SY5Y [5], 65%. The “inhibition (INH)” value in series [3] was found to be 11%.

For the compound `COc1cnc2c(c1)c(CN1CCCCC1)cn2Cc1ccccc1`, the Activity result in the series with SH-SY5Y [1] was “Non-Toxic”; with SH-SY5Y [2], 47%; in the series with SH-SY5Y [4], 40%; in the series with SH-SY5Y [5], 62%. Besides, in [3], the “inhibition (INH)” value worked out at 19%.

In the case of `CCCCn1cc(CN(C)C)c2cc(Cl)ccc21`, the Activity result is “Non-Toxic” in the series with SH-SY5Y [1], 39% in the series with SH-SY5Y [2], 38% with SH-SY5Y [4] and 93% in the series on SH-SY5Y [5]. The “inhibition (INH)” value in series [3] turned out to be 23%.

For `CN(C)Cc1cn(Cc2ccccc2)c2ncc(Br)cc12`, the Activity result in the series on SH-SY5Y [1] is “Non-Toxic”; in the series on SH-SY5Y [2], 21%; with SH-SY5Y [4], 32%; with SH-SY5Y [5] it was 84%. Besides, the “inhibition (INH)” value in series [3] came to 46%. Moreover, the inhibition entry (in series [7]; in the series filed under Bos taurus) was “Active” throughout.

As for `CCCCn1cc(CN2CCCCC2)c2ccccc21`, the Activity entry in the series with SH-SY5Y [1] was “Non-Toxic”; in the series on SH-SY5Y [2], 30%; in the series with SH-SY5Y [4], 25%; in the series on SH-SY5Y [5], 55%. In [3], the “inhibition (INH)” value came out at 13%.

With `COc1cnc2c(c1)c(CN(C)C)cn2Cc1ccccc1`, the Activity entry in the series on SH-SY5Y [1] was “Non-Toxic”; with SH-SY5Y [2], 33%; in the series on SH-SY5Y [4], 29%; in the series with SH-SY5Y [5] it was 51%. Moreover, the “inhibition (INH)” value in [3] worked out at 10%.

For the compound `C#CCn1cc(CN2CCCCC2)c2cc(Cl)ccc21`, the Activity result in the series on SH-SY5Y [1] was “Non-Toxic”; with SH-SY5Y [2], 44%; in the series with SH-SY5Y [4] it was 16%; in the series on SH-SY5Y [5], 55%. In [3], the “inhibition (INH)” value stood at 32%.

Consider `C#CCn1cc(CN(C)C)c2cc(Br)cnc21`, for which the Activity result was “Non-Toxic” in the series on SH-SY5Y [1], 17% in the series on SH-SY5Y [2], 17% in the series with SH-SY5Y [4] and 63% with SH-SY5Y [5]. Moreover, the “inhibition (INH)” value in series [3] is 11%.

In the case of `COC(=O)C1=C(C)NC(C)=C(C(=O)OC)C1c1ccccc1[N+](=O)[O-]` [NIFEDIPINE], the “inhibition (INH)” value in [8] came out at 40%.

`C#CCn1cc(CN2CCCCC2)c2ccccc21`: the Activity entry was “Non-Toxic” in the series on SH-SY5Y [1], 17% with SH-SY5Y [2], 41% in the series on SH-SY5Y [4] and 58% in the series on SH-SY5Y [5]. For the same compound, the “inhibition (INH)” value in series [3] came to 35%.

For `CCCCn1cc(CN(C)C)c2cc(Br)cnc21`, the Activity entry with SH-SY5Y [1] was “Non-Toxic”; in the series on SH-SY5Y [2] it was 34%; in the series with SH-SY5Y [4], 18%; with SH-SY5Y [5] it was 57%. For the same compound, the “inhibition (INH)” value in series [3] is 10%.

With `C#CCn1cc(CN(C)C)c2cc(Cl)ccc21`, the Activity result is “Non-Toxic” with SH-SY5Y [1], 23% in the series on SH-SY5Y [2], 26% with SH-SY5Y [4] and 43% with SH-SY5Y [5]. Moreover, the “inhibition (INH)” value in series [3] was 18%.

For `C#CCn1cc(CN2CCCCC2)c2cc(Br)cnc21`, the Activity result with SH-SY5Y [1] was “Non-Toxic”; in the series with SH-SY5Y [2], 25%; with SH-SY5Y [4] it was 13%; in the series on SH-SY5Y [5] it was 68%. Besides, in series [3], the “inhibition (INH)” value stood at 8%.
